# Measurements from PubChem BioAssay (NCI).
#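 Results reflect a 48-hour exposure of cells in 96-well plates to compound at five concentrations. TGI: total growth inhibition.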
# Tests used:
# Experiment in all cases: NCI anticancer screen, dose series, 48 h
# 786-0 renal = test system: 786-0 renal
# A498 renal = test system: A498 renal
# A549 NSCLC = test system: A549 NSCLC
# ACHN renal = test system: ACHN renal
# BT-549 breast = test system: BT-549 breast
# CAKI-1 renal = test system: CAKI-1 renal
# CCRF-CEM leukemia = test system: CCRF-CEM leukemia
# COLO 205 colon = test system: COLO 205 colon
# DU-145 prostate = test system: DU-145 prostate
# EKVX NSCLC = test system: EKVX NSCLC
# HCC-2998 colon = test system: HCC-2998 colon
# HCT-116 colon = test system: HCT-116 colon
# HCT-15 colon = test system: HCT-15 colon
# HL-60(TB) leukemia = test system: HL-60(TB) leukemia
# HOP-62 NSCLC = test system: HOP-62 NSCLC
# HS 578T breast = test system: HS 578T breast
# HT29 colon = test system: HT29 colon
# IGROV1 ovarian = test system: IGROV1 ovarian
# K-562 leukemia = test system: K-562 leukemia
# KM12 colon = test system: KM12 colon
# LOX IMVI melanoma = test system: LOX IMVI melanoma
# M14 melanoma = test system: M14 melanoma
# MALME-3M melanoma = test system: MALME-3M melanoma
# MCF7 breast = test system: MCF7 breast
# MDA-MB-231 breast = test system: MDA-MB-231 breast
# MDA-MB-435 = test system: MDA-MB-435
# MDA-N = test system: MDA-N
# MOLT-4 leukemia = test system: MOLT-4 leukemia
# NCI-H226 lung = test system: NCI-H226 lung
# NCI-H23 lung = test system: NCI-H23 lung
# NCI-H460 lung = test system: NCI-H460 lung
# NCI/ADR-RES ovarian = test system: NCI/ADR-RES ovarian
# OVCAR-3 ovarian = test system: OVCAR-3 ovarian
# OVCAR-4 ovarian = test system: OVCAR-4 ovarian
# OVCAR-5 ovarian = test system: OVCAR-5 ovarian
# OVCAR-8 ovarian = test system: OVCAR-8 ovarian
# PC-3 prostate = test system: PC-3 prostate
# RPMI-8226 leukemia = test system: RPMI-8226 leukemia
# RXF 393 renal = test system: RXF 393 renal
# SF-268 CNS = test system: SF-268 CNS
# SF-295 CNS = test system: SF-295 CNS
# SF-539 CNS = test system: SF-539 CNS
# SK-MEL-28 melanoma = test system: SK-MEL-28 melanoma
# SK-MEL-5 melanoma = test system: SK-MEL-5 melanoma
# SK-OV-3 ovarian = test system: SK-OV-3 ovarian
# SN12C renal = test system: SN12C renal
# SNB-19 CNS = test system: SNB-19 CNS
# SNB-75 CNS = test system: SNB-75 CNS
# SR leukemia = test system: SR leukemia
# SW-620 colon = test system: SW-620 colon
# TK-10 renal = test system: TK-10 renal
# U251 CNS = test system: U251 CNS
# UACC-257 melanoma = test system: UACC-257 melanoma
# UACC-62 melanoma = test system: UACC-62 melanoma
# UO-31 renal = test system: UO-31 renal
# HOP-92 NSCLC = test system: HOP-92 NSCLC
# NCI-H522 lung = test system: NCI-H522 lung
# SK-MEL-2 melanoma = test system: SK-MEL-2 melanoma
# T-47D breast = test system: T-47D breast
structure (smiles),measurement,setting,value
COCCOCCOCCC(=O)NC1CC2CCC1(C)C2(C)C (stereo unspecified),TGI,786-0 renal,> 100000 nM
same,TGI,A498 renal,> 100000 nM
same,TGI,A549 NSCLC,> 100000 nM
same,TGI,ACHN renal,> 100000 nM
same,TGI,BT-549 breast,> 100000 nM
same,TGI,CAKI-1 renal,> 100000 nM
same,TGI,CCRF-CEM leukemia,> 100000 nM
same,TGI,COLO 205 colon,> 100000 nM
same,TGI,DU-145 prostate,> 100000 nM
same,TGI,EKVX NSCLC,> 100000 nM
same,TGI,HCC-2998 colon,> 100000 nM
same,TGI,HCT-116 colon,> 100000 nM
same,TGI,HCT-15 colon,> 100000 nM
same,TGI,HL-60(TB) leukemia,> 100000 nM
same,TGI,HOP-62 NSCLC,> 100000 nM
same,TGI,HS 578T breast,> 100000 nM
same,TGI,HT29 colon,> 100000 nM
same,TGI,IGROV1 ovarian,> 100000 nM
same,TGI,K-562 leukemia,> 100000 nM
same,TGI,KM12 colon,> 100000 nM
same,TGI,LOX IMVI melanoma,> 100000 nM
same,TGI,M14 melanoma,> 100000 nM
same,TGI,MALME-3M melanoma,> 100000 nM
same,TGI,MCF7 breast,> 100000 nM
same,TGI,MDA-MB-231 breast,> 100000 nM
same,TGI,MDA-MB-435,> 100000 nM
same,TGI,MDA-N,> 100000 nM
same,TGI,MOLT-4 leukemia,> 100000 nM
same,TGI,NCI-H226 lung,> 100000 nM
same,TGI,NCI-H23 lung,> 100000 nM
same,TGI,NCI-H460 lung,> 100000 nM
same,TGI,NCI/ADR-RES ovarian,> 100000 nM
same,TGI,OVCAR-3 ovarian,> 100000 nM
same,TGI,OVCAR-4 ovarian,> 100000 nM
same,TGI,OVCAR-5 ovarian,> 100000 nM
same,TGI,OVCAR-8 ovarian,> 100000 nM
same,TGI,PC-3 prostate,> 100000 nM
same,TGI,RPMI-8226 leukemia,> 100000 nM
same,TGI,RXF 393 renal,> 100000 nM
same,TGI,SF-268 CNS,> 100000 nM
same,TGI,SF-295 CNS,> 100000 nM
same,TGI,SF-539 CNS,> 100000 nM
same,TGI,SK-MEL-28 melanoma,> 100000 nM
same,TGI,SK-MEL-5 melanoma,> 100000 nM
same,TGI,SK-OV-3 ovarian,> 100000 nM
same,TGI,SN12C renal,> 100000 nM
same,TGI,SNB-19 CNS,> 100000 nM
same,TGI,SNB-75 CNS,> 100000 nM
same,TGI,SR leukemia,> 100000 nM
same,TGI,SW-620 colon,> 100000 nM
same,TGI,TK-10 renal,> 100000 nM
same,TGI,U251 CNS,> 100000 nM
same,TGI,UACC-257 melanoma,> 100000 nM
same,TGI,UACC-62 melanoma,> 100000 nM
same,TGI,UO-31 renal,> 100000 nM
COC(=O)[C@]1(C)[C@H]2C[C@H]3O[C@H]4[C@H](O)[C@@H](O)OC(CC(O)C(C5=CC(=O)OC5)C(C5=CC(=O)OC5)C(O)CC56CCCCC7[C@@H](C)[C@H](C[C@H]8[C@](C)(C(=O)OC)[C@H](O)CC[C@]78C)O[C@H]([C@@H](O)[C@H](O)O5)[C@H]6O)(CCCCC([C@@H]3C)[C@]2(C)CC[C@@H]1O)[C@H]4O (stereo partly specified),TGI,786-0 renal,225 nM
same,TGI,A498 renal,737 nM
same,TGI,A549 NSCLC,182 nM
same,TGI,BT-549 breast,305 nM
same,TGI,CAKI-1 renal,849 nM
same,TGI,CCRF-CEM leukemia,333 nM
same,TGI,COLO 205 colon,1330 nM
same,TGI,DU-145 prostate,219 nM
same,TGI,EKVX NSCLC,224 nM
same,TGI,HCC-2998 colon,2940 nM
same,TGI,HCT-116 colon,530 nM
same,TGI,HCT-15 colon,1110 nM
same,TGI,HL-60(TB) leukemia,348 nM
same,TGI,HOP-62 NSCLC,640 nM
same,TGI,HOP-92 NSCLC,3920 nM
same,TGI,HT29 colon,825 nM
same,TGI,IGROV1 ovarian,1200 nM
same,TGI,K-562 leukemia,1730 nM
same,TGI,KM12 colon,1970 nM
same,TGI,LOX IMVI melanoma,1170 nM
same,TGI,M14 melanoma,1160 nM
same,TGI,MALME-3M melanoma,407 nM
same,TGI,MCF7 breast,1580 nM
same,TGI,MDA-MB-231 breast,1890 nM
same,TGI,MDA-MB-435,1100 nM
same,TGI,MDA-N,786 nM
same,TGI,MOLT-4 leukemia,88.3 nM
same,TGI,NCI-H226 lung,5020 nM
same,TGI,NCI-H23 lung,318 nM
same,TGI,NCI-H460 lung,14 nM
same,TGI,NCI-H522 lung,55.8 nM
same,TGI,NCI/ADR-RES ovarian,286 nM
same,TGI,OVCAR-3 ovarian,1050 nM
same,TGI,OVCAR-4 ovarian,373 nM
same,TGI,OVCAR-5 ovarian,3140 nM
same,TGI,OVCAR-8 ovarian,1200 nM
same,TGI,PC-3 prostate,449 nM
same,TGI,RPMI-8226 leukemia,539 nM
same,TGI,RXF 393 renal,264 nM
same,TGI,SF-268 CNS,212 nM
same,TGI,SF-539 CNS,321 nM
same,TGI,SK-MEL-2 melanoma,643 nM
same,TGI,SK-MEL-28 melanoma,10400 nM
same,TGI,SK-MEL-5 melanoma,129 nM
same,TGI,SK-OV-3 ovarian,735 nM
same,TGI,SN12C renal,159 nM
same,TGI,SNB-19 CNS,1120 nM
same,TGI,SNB-75 CNS,1040 nM
same,TGI,SR leukemia,253 nM
same,TGI,SW-620 colon,1780 nM
same,TGI,T-47D breast,6620 nM
same,TGI,TK-10 renal,234 nM
same,TGI,U251 CNS,1090 nM
same,TGI,UACC-257 melanoma,1010 nM
same,TGI,UACC-62 melanoma,779 nM
same,TGI,UO-31 renal,442 nM
